# Laboratory results as given in US12357617B2, “Discovery of novel anti-infectives for gram negative pathogens” (priority 2018, dated 2025).
# Entries after “also recorded” stand apart in the source; their conditions may differ. Read-outs that look alike come from different tables or passages of the source.
# Legend:
# Bp 1026b [1] = format: cell-based, Burkholderia pseudomallei
# Bt E264 = format: cell-based, Burkholderia thailandensis
# Bm 23344 = format: cell-based, Burkholderia mallei
# Bp MSHR305 = format: cell-based, Burkholderia pseudomallei
# Bt [2] = format: cell-based, Burkholderia thailandensis
# Bt [3] = assay: microbe, parasite or virus in culture; format: cell-based, Burkholderia thailandensis; details: for MIC: Burkholderia thailandensis, read-out: in vitro MIC
# [4] = tested on: T6SS-5 secretion activity (Hcp), Bt E264; format: cell-based, Burkholderia thailandensis
# [5] = tested on: T6SS-5 secretion activity (Hcp), Bp 1026b; format: cell-based, Burkholderia pseudomallei
# [6] = tested on: virulence loci (virG, bsaM, bimA, vgrG) of Bt E264; format: cell-based, Burkholderia thailandensis
# Bt [7] = format: cell-based, Burkholderia thailandensis; remark: listed apart in the source
# Bp 1026b [8] = format: in vivo, BALB/c mice
# [9] = reference 37; cited from earlier work
# HEK293 cells = assay: CellTiter-Glo cell viability (cellular toxicity) assay; details: for TD = toxic dose (dose at which HEK293 cell growth is significantly affected): Celltitre-Glo, HEK293 cells; for effect on HEK293 cell viability: concentrations 10-fold higher than the IC100, ATP-depletion assay
# E. coli DNA gyrase = molecular target: T1, E. coli DNA gyrase (Escherichia coli, UniProt P0AES4+P0AES6); assay: E. coli DNA gyrase negative supercoiling assay; format: biochemical; details: 100 uM or 500 uM, agarose gel
# T1 construct: purchased New England Biolabs
# E. coli 25922 = assay: MIC by broth microdilution, E. coli 25922; format: cell-based, Escherichia coli; details: for MIC: Escherichia coli, E. coli 25922, broth microdilution
# [10] = tested on: E. coli resistant isolate 1; assay: MIC by broth microdilution, E. coli resistant isolate 1; format: cell-based; details: Escherichia coli; E. coli resistant isolate 1 (Cip-resistant clinical isolate)
# [11] = tested on: E. coli resistant isolate 2; assay: MIC by broth microdilution, E. coli resistant isolate 2; format: cell-based; details: Escherichia coli; E. coli resistant isolate 2 (Cip-resistant clinical isolate)
# [12] = tested on: P. aueruginosa ATCC 27853; assay: MIC by broth microdilution, P. aeruginosa ATCC 27853; format: cell-based, Pseudomonas aeruginosa; details: for MIC: Pseudomonas aeruginosa, ATCC27853
# [13] = tested on: P. aeruginosa resistant isolate 1; assay: MIC by broth microdilution, P. aeruginosa resistant isolate 1; format: cell-based; details: Pseudomonas aeruginosa
# [14] = tested on: P. aeruginosa resistant isolate 2; assay: MIC by broth microdilution, P. aeruginosa resistant isolate 2; format: cell-based; details: Pseudomonas aeruginosa
# S. aureus ATCC 29213 = assay: MIC by broth microdilution, S. aureus ATCC 29213; format: cell-based; details: Staphylococcus aureus, ATCC29213
# [15] = tested on: S. aureus resistant isolate 1; assay: MIC by broth microdilution, S. aureus resistant isolate 1; format: cell-based; details: Staphylococcus aureus
# [16] = tested on: S. aureus resistant isolate 2; assay: MIC by broth microdilution, S. aureus resistant isolate 2; format: cell-based; details: Staphylococcus aureus
# Bp82 (BpeEF-OprC-) = assay: microbe, parasite or virus in culture; format: cell-based; details: Burkholderia pseudomallei
# Bp82.270 (BpeEF-OprC+) = assay: microbe, parasite or virus in culture; format: cell-based; details: Burkholderia pseudomallei
# Bp82.284 (BpeEF-OprC+) = assay: microbe, parasite or virus in culture; format: cell-based; details: Burkholderia pseudomallei
# Bp82.285 (BpeEF-OprC+) = assay: microbe, parasite or virus in culture; format: cell-based; details: Burkholderia pseudomallei
# T1 sequence (P0AES4 whole entry, one chain of several): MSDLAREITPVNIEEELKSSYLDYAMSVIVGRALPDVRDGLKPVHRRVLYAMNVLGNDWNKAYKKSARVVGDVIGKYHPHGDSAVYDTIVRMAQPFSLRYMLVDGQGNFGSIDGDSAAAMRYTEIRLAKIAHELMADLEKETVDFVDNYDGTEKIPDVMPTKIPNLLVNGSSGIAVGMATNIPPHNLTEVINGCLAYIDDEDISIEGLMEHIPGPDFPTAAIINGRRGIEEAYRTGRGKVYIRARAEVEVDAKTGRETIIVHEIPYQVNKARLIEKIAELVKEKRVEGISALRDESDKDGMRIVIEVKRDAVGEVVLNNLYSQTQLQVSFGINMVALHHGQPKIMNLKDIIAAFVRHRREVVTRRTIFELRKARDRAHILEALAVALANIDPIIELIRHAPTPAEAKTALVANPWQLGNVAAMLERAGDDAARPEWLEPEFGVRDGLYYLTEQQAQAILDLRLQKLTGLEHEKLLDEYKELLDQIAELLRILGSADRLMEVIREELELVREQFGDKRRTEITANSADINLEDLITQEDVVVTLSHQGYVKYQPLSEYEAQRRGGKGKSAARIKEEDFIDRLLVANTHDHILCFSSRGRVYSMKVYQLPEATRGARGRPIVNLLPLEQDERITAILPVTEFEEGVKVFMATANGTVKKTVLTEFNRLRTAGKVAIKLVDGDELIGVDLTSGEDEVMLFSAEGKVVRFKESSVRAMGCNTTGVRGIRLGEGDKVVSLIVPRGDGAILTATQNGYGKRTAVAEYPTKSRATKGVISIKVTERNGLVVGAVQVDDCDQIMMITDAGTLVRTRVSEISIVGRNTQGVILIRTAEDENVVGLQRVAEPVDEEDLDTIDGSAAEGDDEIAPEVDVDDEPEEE
smiles,measurement,setting,value
"Nc1nc(=O)[nH]cc1F [5-FC, flucytosine]",ED = effective dose (IC100) against Bp,Bp 1026b [1],3.1 µM
same,inhibition of plaque formation by Bp 1026b (validation),Bp 1026b [1],activity against Bp and Bt
same,plaque formation by Bp at increasing concentrations,Bp 1026b [1],inhibits plaque formation
same,inhibition of plaque formation by Bt E264 (screen and validation),Bt E264,inhibitors; also recorded: activity against Bp and Bt
same,intercellular spread by time of addition,Bt E264,robustly inhibits intercellular spread irrespective of time of addition
same,plaque formation by Bt,Bt E264,completely inhibits plaque formation; also recorded: completely abolished plaque formation
same,plaque formation by Bt at increasing concentrations,Bt E264,inhibits plaque formation
same,inhibition of plaque formation by Bm 23344 (validation),Bm 23344,ineffective
same,plaque formation by Bp MSHR305,Bp MSHR305,effective at ablating plaque formation
same,decrease in peak intracellular bacterial numbers,Bt [2],3 fold
same,intracellular replication of Bt,Bt [2],"delays and decreases, but does not eliminate"
same,intracellular replication of a fusion defective mutant (ΔvgrG),Bt [2],does not inhibit the intracellular replication
same,in vitro growth of Bt,Bt [3],does not significantly inhibit in vitro growth
same,expression of Hcp (pellet),[4],does not affect expression of Hcp
same,secretion of Hcp (supernatant),[4],inhibits secretion of Hcp
same,expression of Hcp (pellet),[5],does not affect expression of Hcp
same,secretion of Hcp (supernatant),[5],inhibits secretion of Hcp
same,"reduction in the expression of virG, bsaM, bimA, and vgrG",[6],≤ 4 fold
same,actin-mediated intracellular motility (bacteria with actin tails),Bt [7],does not inhibit actin-mediated intracellular motility
same,bacterial loads in liver and spleen compared to lung of surviving mice,"Bp 1026b [8]; mouse, in vivo",low or undetectable bacterial loads
same,"bacterial loads in lungs, livers, and spleens","Bp 1026b [8]; mouse, in vivo","decreased, although to a lesser extent"
same,"histopathology: inflammation in pulmonary, hepatic, and splenic tissue","Bp 1026b [8]; mouse, in vivo",significantly reduced inflammation
same,mice surviving the entire study duration (10 days),"Bp 1026b [8]; mouse, in vivo",12%
same,mice surviving to five days post-infection,"Bp 1026b [8]; mouse, in vivo",36.7%
same,overall efficacy compared to ceftazidime,"Bp 1026b [8]; mouse, in vivo",superiority to ceftazidime
same,bioavailability,[9],good bioavailability
same,TD = toxic dose (dose at which HEK293 cell growth is significantly affected),HEK293 cells,>50 µM
same,effect on HEK293 cell viability,HEK293 cells,no effect on cell viability
"O=c1[nH]cc(F)c(=O)[nH]1 [5-FU, 5-fluorouracil]",plaque formation by Bt,Bt E264; 25 μM,completely abolished plaque formation
"CCn1cc(C(=O)O)c(=O)c2cc(F)c(N3CCOCC3)cc21 [BFX, 1-Ethyl-6-fluoro-7-(4-morpholinyl)-4-oxo-1,4-dihydro-3-quinolinecarboxylic acid]",ED = effective dose (IC100) against Bp,Bp 1026b [1],0.1 µM
same,inhibition of plaque formation / intercellular spread by Bp 1026b,Bp 1026b [1],near-complete inhibition
same,inhibition of plaque formation by Bp 1026b (validation),Bp 1026b [1],consistently inhibit plaque formation
same,fold lower concentration than Cip at which plaque formation by Bt is prevented,Bt E264,8 fold
same,inhibition of plaque formation / intercellular spread by Bt E264,Bt E264,near-complete inhibition
same,inhibition of plaque formation by Bt E264 (screen and validation),Bt E264,consistently inhibit plaque formation
same,inhibition of plaque formation by Bm 23344 (validation),Bm 23344,consistently inhibit plaque formation
same,plaque formation by Bp MSHR305,Bp MSHR305; 5 μM,effective at ablating plaque formation
same,intracellular replication of Bt,Bt [2],inhibits intracellular replication
same,dose needed to inhibit growth in laboratory medium,Bt [3],5 µM
same,in vitro growth of Bt,Bt [3],does not inhibit in vitro growth
same,MIC,Bt [3],2.6 µg/mL
same,negative supercoiling activity of E. coli DNA gyrase,E. coli DNA gyrase,inhibits the negative supercoiling activity
same,growth of E. coli ATCC 25922 (in words),E. coli 25922,inhibitory for the growth
same,MIC,E. coli 25922,4 µg/mL
same,MIC,[10],> 7 µg/mL
same,MIC,[11],> 7 µg/mL
same,growth of Pseudomonas aeruginosa ATCC 27853 (in words),[12],inhibitory for the growth
same,MIC,[12],4 µg/mL
same,MIC,[13],> 7 µg/mL
same,MIC,[14],> 7 µg/mL
same,MIC,S. aureus ATCC 29213,> 7 µg/mL
same,MIC,[15],> 7 µg/mL
same,MIC,[16],> 7 µg/mL
same,MIC,Bp82 (BpeEF-OprC-),2 µg/mL
same,MIC,Bp82.270 (BpeEF-OprC+),32 µg/mL
same,MIC,Bp82.284 (BpeEF-OprC+),32 µg/mL
same,MIC,Bp82.285 (BpeEF-OprC+),32 µg/mL
same,bacterial loads in liver and spleen compared to lung of surviving mice,Bp 1026b [8]; 10 days,low or undetectable bacterial loads
same,"bacterial loads in lungs, livers, and spleens","Bp 1026b [8]; mouse, in vivo",decreased relative to placebo and ceftazidime-treated controls
same,"histopathology: inflammation in pulmonary, hepatic, and splenic tissue","Bp 1026b [8]; mouse, in vivo",nearly undetectable inflammation
same,overall efficacy compared to ceftazidime,"Bp 1026b [8]; mouse, in vivo",superiority to ceftazidime
same,mice surviving the entire study duration (10 days),Bp 1026b [8]; n=8,63%
same,mice surviving to five days post-infection,Bp 1026b [8]; n=8,100%
same,TD = toxic dose (dose at which HEK293 cell growth is significantly affected),HEK293 cells,>50 µM
same,effect on HEK293 cell viability,HEK293 cells,no effect on cell viability
"O=C(O)c1cn(C2CC2)c2cc(N3CCNCC3)c(F)cc2c1=O [Cip, ciprofloxacin]",MIC,Bt [3],1.3 µg/mL
same,negative supercoiling activity of E. coli DNA gyrase,E. coli DNA gyrase,inhibits the negative supercoiling activity
same,MIC,E. coli 25922,2 µg/mL
same,MIC,[12],4 µg/mL
same,MIC,[13],> 7 µg/mL
same,MIC,[14],> 7 µg/mL
same,MIC,S. aureus ATCC 29213,> 7 µg/mL
same,MIC,[15],> 7 µg/mL
same,MIC,[16],> 7 µg/mL
same,MIC,Bp82 (BpeEF-OprC-),1 µg/mL
same,MIC,Bp82.270 (BpeEF-OprC+),16 µg/mL
same,MIC,Bp82.284 (BpeEF-OprC+),16 µg/mL
same,MIC,Bp82.285 (BpeEF-OprC+),16 to 32 µg/mL
"O=c1[nH]c(=O)n([C@@H]2O[C@H](CO)[C@@H](O)[C@H]2O)cc1F [F-UR, Fluorouridine]",plaque formation by Bt,Bt E264,minimally inhibitory; also recorded: fully inhibitory
"O=c1[nH]c(=O)n([C@H]2C[C@H](O)[C@@H](CO)O2)cc1F [F-UdR, fluorodeoxyuridine]",plaque formation by Bt,Bt E264,lack of inhibitory activity
"C[C@H]1COc2c(N3CCN(C)CC3)c(F)cc3c(=O)c(C(=O)O)cn1c23 [Levo, levofloxacin]",MIC,E. coli 25922,4 µg/mL
same,MIC,[10],> 7 µg/mL
same,MIC,[11],> 7 µg/mL
same,MIC,[12],5 µg/mL
same,MIC,[13],> 7 µg/mL
same,MIC,[14],> 7 µg/mL
same,MIC,S. aureus ATCC 29213,> 7 µg/mL
same,MIC,[15],> 7 µg/mL
same,MIC,[16],> 7 µg/mL
C[C@@H]1CC[C@H]2[C@@H](C)C(=O)O[C@@H]3O[C@@]4(C)CC[C@@H]1[C@]32OO4 [artemisinin],inhibition of plaque formation by Bm 23344 (validation),Bm 23344,specific for Bm only
CC(C)(O/N=C(\C(=O)N[C@@H]1C(=O)N2C(C(=O)[O-])=C(C[n+]3ccccc3)CS[C@H]12)c1csc(N)n1)C(=O)O [ceftazidime],time by which all animals succumbed to infection,"Bp 1026b [8]; mouse, in vivo",by five days
CC[C@@]1([C@@H]2O[C@@H]([C@H]3O[C@@](O)(CO)[C@H](C)C[C@@H]3C)C[C@@H]2C)CC[C@H]([C@]2(C)CC[C@]3(C[C@H](O)[C@@H](C)[C@@H]([C@@H](C)[C@@H](OC)[C@H](C)C(=O)O)O3)O2)O1 [monensin],inhibition of plaque formation by Bm 23344 (validation),Bm 23344,specific for Bm only
COc1cc(Cc2cnc(N)nc2N)cc(OC)c1OC [trimethoprim],inhibition of plaque formation by Bt E264 (screen and validation),Bt E264,inhibitors
